Results taken from ChEMBL document CHEMBL1201862, “PubChem BioAssay data set” (2004).
Active and inactive are the calls of the source.

Tests used:
[1] = HIV-1 Vif–A3G interaction blockers – biochemical, TR-FRET, GST-Vif 1-94, biotin-A3G peptide, dose response retest, primary screen (AID 1117319); format: functional;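 also: TR-FRET signal of purified GST-Vif binding a biotinylated A3G peptide; inhibitors lower the FRET signal by blocking Vif and A3G binding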
[2] = biological target: T1, Apoptotic protease-activating factor 1 (Homo sapiens, UniProt O14727); format: functional
T1 sequence (O14727 whole entry): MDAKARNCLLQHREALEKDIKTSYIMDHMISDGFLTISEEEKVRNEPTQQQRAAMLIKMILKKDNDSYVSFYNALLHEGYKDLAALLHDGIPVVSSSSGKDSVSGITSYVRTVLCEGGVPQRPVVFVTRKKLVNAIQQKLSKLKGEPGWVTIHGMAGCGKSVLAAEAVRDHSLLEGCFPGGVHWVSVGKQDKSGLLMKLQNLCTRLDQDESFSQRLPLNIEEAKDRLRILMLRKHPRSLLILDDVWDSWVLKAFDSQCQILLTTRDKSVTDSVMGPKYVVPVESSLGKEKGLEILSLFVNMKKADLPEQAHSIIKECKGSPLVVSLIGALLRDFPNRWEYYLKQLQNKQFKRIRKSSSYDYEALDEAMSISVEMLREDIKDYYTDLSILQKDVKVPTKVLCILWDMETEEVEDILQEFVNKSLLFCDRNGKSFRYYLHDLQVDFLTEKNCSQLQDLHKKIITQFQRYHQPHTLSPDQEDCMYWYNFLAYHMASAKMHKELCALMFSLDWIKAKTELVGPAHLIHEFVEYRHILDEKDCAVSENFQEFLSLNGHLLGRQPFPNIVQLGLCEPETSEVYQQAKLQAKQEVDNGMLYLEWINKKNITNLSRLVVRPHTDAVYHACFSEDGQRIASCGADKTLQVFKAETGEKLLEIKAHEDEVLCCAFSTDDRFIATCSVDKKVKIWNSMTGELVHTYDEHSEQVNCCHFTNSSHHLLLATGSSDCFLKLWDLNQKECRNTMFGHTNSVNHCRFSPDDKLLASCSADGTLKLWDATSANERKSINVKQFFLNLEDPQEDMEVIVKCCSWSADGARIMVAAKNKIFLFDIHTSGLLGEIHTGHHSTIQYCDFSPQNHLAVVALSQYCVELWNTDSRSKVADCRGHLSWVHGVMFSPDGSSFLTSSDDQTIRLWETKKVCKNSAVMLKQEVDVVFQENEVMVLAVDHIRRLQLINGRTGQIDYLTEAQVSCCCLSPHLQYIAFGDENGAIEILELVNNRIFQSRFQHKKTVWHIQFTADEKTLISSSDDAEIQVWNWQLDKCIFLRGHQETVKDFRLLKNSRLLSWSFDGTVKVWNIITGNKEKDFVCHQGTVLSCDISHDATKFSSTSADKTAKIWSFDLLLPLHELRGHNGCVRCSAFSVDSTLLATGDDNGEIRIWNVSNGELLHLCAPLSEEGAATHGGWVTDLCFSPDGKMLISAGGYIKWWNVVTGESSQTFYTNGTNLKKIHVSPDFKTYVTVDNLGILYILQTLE

[3] = biological target: Genome polyprotein (dengue virus type 2, UniProt P29990); experiment: flavivirus cap methylation enzyme inhibition – biochemical, confirmation dose response, primary screen (AID 588689); format: functional
Chain of Genome polyprotein (P29990 2492-3391 limits assumed): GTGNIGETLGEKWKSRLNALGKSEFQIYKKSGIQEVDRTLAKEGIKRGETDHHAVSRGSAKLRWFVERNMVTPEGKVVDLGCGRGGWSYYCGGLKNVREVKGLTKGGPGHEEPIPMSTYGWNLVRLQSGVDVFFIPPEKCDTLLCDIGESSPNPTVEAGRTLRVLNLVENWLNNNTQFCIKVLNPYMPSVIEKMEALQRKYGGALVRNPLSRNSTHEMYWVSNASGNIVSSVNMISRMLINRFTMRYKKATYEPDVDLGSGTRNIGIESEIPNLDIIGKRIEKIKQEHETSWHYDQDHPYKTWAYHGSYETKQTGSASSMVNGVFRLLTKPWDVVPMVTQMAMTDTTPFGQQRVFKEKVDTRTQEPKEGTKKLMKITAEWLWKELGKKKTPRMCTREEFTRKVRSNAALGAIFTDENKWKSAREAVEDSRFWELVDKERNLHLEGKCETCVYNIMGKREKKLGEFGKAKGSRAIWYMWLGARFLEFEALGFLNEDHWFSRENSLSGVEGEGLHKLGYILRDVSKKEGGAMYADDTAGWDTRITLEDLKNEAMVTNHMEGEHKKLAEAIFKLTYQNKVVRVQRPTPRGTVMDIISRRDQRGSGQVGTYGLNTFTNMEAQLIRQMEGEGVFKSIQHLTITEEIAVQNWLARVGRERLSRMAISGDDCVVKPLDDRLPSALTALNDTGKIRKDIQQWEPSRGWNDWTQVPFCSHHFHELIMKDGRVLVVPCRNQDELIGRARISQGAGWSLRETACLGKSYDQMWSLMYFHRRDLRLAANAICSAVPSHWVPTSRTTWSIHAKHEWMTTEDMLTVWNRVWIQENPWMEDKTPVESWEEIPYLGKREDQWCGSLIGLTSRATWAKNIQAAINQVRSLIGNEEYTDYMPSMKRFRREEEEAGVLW

[4] = biological target: T2, Protein Tat (Human immunodeficiency virus type 1 group M subtype B (isolate HXB2)(HIV-1), UniProt P04608); format: functional;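 also: tat binding to TAR RNA read out by fluorescence polarization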
T2 sequence (P04608 whole entry): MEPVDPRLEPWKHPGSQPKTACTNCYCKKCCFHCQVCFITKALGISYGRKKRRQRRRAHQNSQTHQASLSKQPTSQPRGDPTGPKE

[5] = viability loss in THP-1 monocytes – THP-1 cells, cytotoxicity control for Vif-APOBEC3G degradation inhibitor project, dose response (AID 1117359); format: functional; conditions: THP-1
[6] = biological target: E3 ubiquitin-protein ligase Mdm2 (Homo sapiens, UniProt Q00987); experiment: MDM2-luc reporter signal enhancers, multi-concentration potency testing, MDM2 ubiquitin-protein ligase inhibitor program, whole-cell format, luminescence detection, 384-well microplate (AID 1394); format: functional;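 also: MDM2 E3 inhibitors raise luminescence so EC50 is for signal enhancement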
Chain of E3 ubiquitin-protein ligase Mdm2 (Q00987 whole entry): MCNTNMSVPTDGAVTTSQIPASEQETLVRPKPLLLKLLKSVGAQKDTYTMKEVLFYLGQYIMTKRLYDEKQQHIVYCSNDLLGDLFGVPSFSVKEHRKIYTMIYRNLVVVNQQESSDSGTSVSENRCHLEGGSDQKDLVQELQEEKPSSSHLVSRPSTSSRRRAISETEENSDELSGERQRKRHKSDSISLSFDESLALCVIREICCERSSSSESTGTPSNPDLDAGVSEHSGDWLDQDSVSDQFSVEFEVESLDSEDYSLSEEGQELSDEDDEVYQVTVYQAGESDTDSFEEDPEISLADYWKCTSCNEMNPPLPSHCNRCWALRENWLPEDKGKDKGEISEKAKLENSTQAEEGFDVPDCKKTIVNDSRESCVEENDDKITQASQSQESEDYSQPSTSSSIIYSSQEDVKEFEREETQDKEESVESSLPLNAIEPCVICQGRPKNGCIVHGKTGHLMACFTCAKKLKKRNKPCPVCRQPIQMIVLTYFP

[7] = viability inhibitors of stage V gametocytes – luminescence, dose response (AID 1117278); format: functional, cell-based;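 also: gametocytes exposed to compound for 24 hours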
[8] = viability loss in human Jurkat cells – cell-based, luminescence, cytotoxicity control for P. falciparum gametocyte viability project, dose response (AID 1117277); format: functional;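 also: potency reflects loss of cellular ATP meaning fewer viable cells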
[9] = reduced cellular PGC1a acetyl-lysine signal – cell-based, cherry-picked samples, dose response (AID 720514); format: functional;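 also: potency may reflect raised or lowered acetylation signal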
[10] = A549 cell cytotoxicity, dose response, cytotoxicity control, plate reader, cherry-pick, antagonist series (AID 743412); format: functional, cell-based
[11] = toxicity toward HepG2 liver cells – cell-based, plate reader, cherry-pick, antagonist series, cytotoxicity control, dose response (AID 743416); format: functional
[12] = blockers of bursicon-stimulated LGR2 cAMP reporter – cell-based, HEK293, CRE-luciferase reporter, cherry pick, set 2, dose response (AID 743343); format: functional;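 also: transfected cells were stimulated with diluted bursicon conditioned medium after compound addition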
[13] = blockade of melanocortin 4 receptor signaling – cell-based, plate reader, cherry pick, counter-screen for LGR2 antagonist project, dose response (AID 743444); format: functional;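 also: transfected HEK 293 cells stimulated with alpha-MSH peptide; potency of inhibitors of the alpha-MSH evoked signal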
[14] = viability loss in HEK293 cells – cell-based, plate reader, cherry-picked samples, cytotoxicity control, dose response (AID 743446); format: functional
[15] = biological target: Kallikrein-7 (Homo sapiens, UniProt P49862); experiment: Fluorescence Intensity-based biochemical primary high throughput dose response assay to identify activators of kallikrein-7 (K7) zymogen.
Chain of Kallikrein-7 (P49862 whole entry): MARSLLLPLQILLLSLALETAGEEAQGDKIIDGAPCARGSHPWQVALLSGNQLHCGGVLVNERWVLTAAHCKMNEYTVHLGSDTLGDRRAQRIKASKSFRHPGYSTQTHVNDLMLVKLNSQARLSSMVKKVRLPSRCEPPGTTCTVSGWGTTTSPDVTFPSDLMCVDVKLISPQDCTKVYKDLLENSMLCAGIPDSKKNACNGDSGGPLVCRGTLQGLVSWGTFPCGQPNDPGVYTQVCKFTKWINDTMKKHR

[16] = NIH-3T3 fibroblast cytotoxicity, dose response, cytotoxicity control, cell-based, fluorescence, Alamar Blue, secondary assay (AID 2327); format: functional;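 also: NIH-3T3 mouse fibroblasts cultured with fluconazole at 8 µg/mL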
[17] = fluconazole-exposed Candida albicans growth modulators – fluorescence, retest, confirmation (AID 2467); format: functional, cell-based
[18] = viability of PTEN-deleted HCT116 cells – cell-based, HCT116 PTEN knockout, dose response (AID 1047); format: functional;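 also: HCT116 colon tumor cells with PTEN knocked out; cells exposed to compound for 60 hours before readout; potency for loss of cell viability measured by luminescence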
[19] = viability of HCT116 lacking mutant beta-catenin – cell-based, human colon tumor, dose response (AID 1045); format: functional;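 also: HCT116 colon tumor cells with beta catenin knocked out; cells exposed to compound for 60 hours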
[20] = biological target: T3, Caspase-6 (Homo sapiens, UniProt P55212); experiment: inhibition of CASP6 peptide cleavage – biochemical, VEID-R110 fluorescence, cherry-pick, dose response (AID 720632)
T3 sequence (P55212 whole entry): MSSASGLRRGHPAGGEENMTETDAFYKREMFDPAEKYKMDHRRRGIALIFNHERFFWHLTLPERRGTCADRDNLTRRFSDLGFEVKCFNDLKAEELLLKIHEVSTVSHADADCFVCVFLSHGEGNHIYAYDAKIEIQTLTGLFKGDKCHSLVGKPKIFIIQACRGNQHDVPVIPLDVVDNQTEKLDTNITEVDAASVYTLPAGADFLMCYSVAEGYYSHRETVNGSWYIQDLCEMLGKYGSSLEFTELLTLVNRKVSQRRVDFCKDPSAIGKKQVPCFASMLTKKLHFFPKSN

[21] = viability loss in Vero cells – cytotoxicity control for Vif-APOBEC3G degradation inhibitor project, dose response (AID 1117358); format: functional; conditions: Vero
[22] = P. falciparum Dd2 growth inhibitors, dose response, SYBR Green, cherry-picked samples (AID 1159567); format: functional, cell-based
[23] = toxicity to human hepatoma HepG2 cells – cell-based, cherry-picked samples, cytotoxicity control, dose response (AID 1159577); format: functional
[24] = potency of ADAM10 substrate cleavage blockers – biochemical, QFRET, dose response (AID 743254);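 also: ADAM10 enzyme with the DM2 quenched FRET peptide as substrate; EDANS fluorescence gain as the protease cuts the substrate; inhibitor potency against ADAM10 proteolytic activity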
[25] = biological target: Disintegrin and metalloproteinase domain-containing protein 17 (Homo sapiens, UniProt P78536); experiment: inhibition of ADAM17 substrate cleavage – biochemical, quenched FRET substrate, counter-screen for ADAM10 exosite inhibitor project, dose response (AID 743253)
Chain of Disintegrin and metalloproteinase domain-containing protein 17 (P78536 whole entry, the tested form may be a part): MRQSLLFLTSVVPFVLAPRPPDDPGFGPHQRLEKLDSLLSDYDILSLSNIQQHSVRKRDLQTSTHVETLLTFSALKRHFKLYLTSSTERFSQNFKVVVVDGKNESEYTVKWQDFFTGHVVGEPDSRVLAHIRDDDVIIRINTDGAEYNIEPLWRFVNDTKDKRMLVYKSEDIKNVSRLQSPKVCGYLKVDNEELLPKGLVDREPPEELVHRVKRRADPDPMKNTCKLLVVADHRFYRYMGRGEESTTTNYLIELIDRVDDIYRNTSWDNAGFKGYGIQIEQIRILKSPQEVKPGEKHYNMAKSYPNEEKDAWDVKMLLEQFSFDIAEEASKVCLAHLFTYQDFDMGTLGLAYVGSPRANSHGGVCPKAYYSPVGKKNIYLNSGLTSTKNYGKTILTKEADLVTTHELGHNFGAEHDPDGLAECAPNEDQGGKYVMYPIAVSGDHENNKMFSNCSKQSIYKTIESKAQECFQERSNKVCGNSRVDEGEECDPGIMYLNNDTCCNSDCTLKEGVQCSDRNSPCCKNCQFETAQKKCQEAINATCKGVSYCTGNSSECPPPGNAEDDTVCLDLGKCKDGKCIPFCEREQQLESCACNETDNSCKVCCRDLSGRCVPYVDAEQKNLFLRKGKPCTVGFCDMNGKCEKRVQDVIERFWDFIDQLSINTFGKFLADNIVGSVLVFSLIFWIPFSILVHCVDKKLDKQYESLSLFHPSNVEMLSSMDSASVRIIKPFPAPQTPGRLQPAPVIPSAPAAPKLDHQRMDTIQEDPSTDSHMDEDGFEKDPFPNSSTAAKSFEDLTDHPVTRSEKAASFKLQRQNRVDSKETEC

[26] = MITF Orthogonal Assay: SK-MEL-5 CTG Assay Measured in Cell-Based System Using Plate Reader - 2084-02_Inhibitor_Dose_DryPowder_Activity_Set7.; format: functional
[27] = MITF: Counter assay: A375 proliferation Measured in Cell-Based System Using Plate Reader - 2084-03_Inhibitor_Dose_DryPowder_Activity_Set8.; format: functional; conditions: A-375
[28] = inhibitors of TRPM1-promoter reporter in SK-MEL-5 – cell-based, luciferase, dry powder, set 8, MITF inhibitor project, dose response (AID 624430); format: functional
[29] = IC50 of insulin release inhibition, rat insulinoma INS-1E line, 5 mM glucose, cell-based (AID 1117331); format: functional
[30] = CellTiter-Glo luminescence survival assay, SW480 colon tumor line, concentration-response curve, half-maximal inhibitory concentration (AID 1117338); format: functional
[31] = RKO cell viability reduction, dose response, CellTiter-Glo luminescence (AID 1117322); format: functional
[32] = cytotoxicity toward HCT116 cells – cell-based, CellTiter-Glo luminescence, IC50, dose response (AID 1117332); format: functional; conditions: HCT-116
[33] = SNU-C1 cell viability reduction, dose response, CellTiter-Glo luminescence (AID 1117323); format: functional, cell-based
[34] = cytotoxicity toward Colo320 cells – cell-based, CellTiter-Glo luminescence, IC50, dose response (AID 1117334); format: functional; conditions: COLO 320
[35] = cytotoxicity toward HT-29 cells – cell-based, CellTiter-Glo luminescence, IC50, dose response (AID 1117330); format: functional
[36] = Reduced DLD-1 viability, concentration-response, CellTiter-Glo luminescence (AID 1117352); format: functional

With `CC1=C(C(=O)NCc2ccco2)C2(CCC(C)CC2)OC1=O` (centres undefined) the IC50 [1] was > 100 µM (active).

For `CCc1ccc(CNc2ccc(O)cc2)cc1`, the IC50 [2] was 27.5 µM (active), the IC50 [3] was > 100 µM (active) and the IC50 [4] was 25.4 µM (inconclusive). The CC50 [5] was 26.4 µM (active) and the IC50 [1] was > 50.6 µM (active).

With `Cc1ccccc1Nc1nnc(SCC2CCCCO2)s1` (centres undefined) the EC50 [6] was 8.93 µM (not active).

With `CCOC(=O)C(C#N)C(c1cccnc1)c1c(C)n[nH]c1O` (centres undefined) the IC50 [7] was > 109 µM (inactive) and the IC50 [8] was > 83.3 µM (inactive).

In the case of `O=C(/C=C/c1cccs1)c1ccc(NC(=O)c2cccc(Br)c2)cc1`, the AC50 [9] was 28.9 µM (active).

For `Cc1csc(CNc2ncnc3ccc(-c4ccoc4)cc23)c1`, the AC50 [10] was > 52 µM (inactive), the AC50 [11] was 27.8 µM (active) and the AC50 [12] was 0.81 µM (active). For the same molecule, the AC50 [13] was 0.489 µM (active) and the AC50 [14] was 28.9 µM (active).

For `COc1ccc(-c2cc(C(=O)NC3CC3)c3ccccc3n2)cc1`, the EC50 [15] was 86.4 µM (inactive).

For `C=CCO/C(O)=C1\C(C)=NC(SCC(=O)NC(=O)OCC)=C(C#N)C1c1cccnc1` (centres undefined), the EC50 [16] was > 150 µM (inactive), the EC50 [17] was 6.32 µM (active) and the EC50 [15] was 4.56 µM (active).

For `CCOC(=O)c1c(C)oc2c1c(/C=N/Cc1ccccn1)c(O)c1ccccc12`, the EC50 [18] was 25 µM (active), the EC50 [19] was 26.4 µM (active) and the AC50 [20] was 11 µM (active). For the same molecule, the CC50 [21] was 34.4 µM (active).

With `CCCc1c(-c2ccccc2F)ncn1CCc1ccccc1OC` the AC50 [10] was 23.5 µM (active), the AC50 [11] was 23.6 µM (active) and the AC50 [12] was 13.4 µM (active). For the same molecule, the AC50 [13] was 17.4 µM (active) and the AC50 [14] was 31.7 µM (active).

For `Fc1ccc(-c2ccc([C@@H]3[C@@H]4CN(Cc5ccccc5)C[C@H]3N4)cc2)cc1`, the AC50 [9] was 14.3 µM (active), the AC50 [22] was 4.07 µM (active) and the AC50 [23] was 8.83 µM (active).

For `COc1cc(NC(=O)c2ccccc2)c(C)cc1NC(=O)CSc1nnc(-c2ccccc2F)n1-c1ccc(C)cc1`, the IC50 [24] was > 69.5 µM (inactive) and the IC50 [25] was > 69.5 µM (inactive).

For `CN1CCN(C2=C(Nc3ccc(F)cc3)C(=O)c3ccccc3C2=O)CC1`, the AC50 [26] was 12.1 µM (active), the AC50 [27] was > 70 µM (inactive) and the AC50 [28] was 8.28 µM (active).

With `CN(C)CC/C=C1\c2ccccc2Sc2ccc(Cl)cc21` the IC50 [29] was > 33.3 µM (inactive).

With `CC(C)(C)CC(C)(C)c1cc(Cc2cc(C(C)(C)CC(C)(C)C)cc(-n3nc4ccccc4n3)c2O)c(O)c(-n2nc3ccccc3n2)c1` [BISOCTRIZOLE] the IC50 [30] was > 20 µM (inactive), the IC50 [31] was > 20 µM (inactive) and the IC50 [32] was > 20 µM (inactive). The IC50 [33] was > 20 µM (inactive), the IC50 [34] was > 20 µM (inactive) and the IC50 [35] was > 20 µM (inactive). The IC50 [36] was > 20 µM (inactive).
